One may read the EC50 as the concentration that produces a half-maximal response.

The record followed here is patent US20070149580A1, “USE OF PEROXISOME PROLIFERATOR ACTIVATED RECEPTOR DELTA AGONISTS FOR THE TREATMENT OF MS AND OTHER DEMYELINATING DISEASES” (AVENTIS PHARMACEUTICALS INC., priority 2004, published 2007).

Holding throughout (format): cell-based
Experiment [1] concerns PPAR delta pathway in cultured rat oligodendrocytes. The experiment in a line: Quantitative PCR of PPAR delta pathway transcriptional markers (ADRP mRNA) in cultured rat oligodendrocytes. The note with it: FIG. 4B. From the text: • 1. Primary rat oligodendrocyte progenitor cells are obtained from the neocortex of newborn (postnatal days 2-3) rats or mice and are enriched, after removal of microglia, by mechanical separation from the astrocytic monolayer using a modification of the technique originally described by McCarthy and de Vellis (1980). • 2. Remove the meninges from neonatal rat brain and mechanically dissociate tissue. Plate cells on T75 flasks and feed cells with DMEM/F12+10% FBS. • 3. Collect oligodendrocytes growing on the astrocyte bed layer by shaking-off method fourteen days after the original prep date. Centrifuge the suspension and resuspend the cell pellet in serum free media (SFM; DMEM combined with 25 μg/ml transferring, 30 nM triiodothyronine, 20 nM hydrocortisone, 20 nM progesterone, 10 nM biotin, 1× trace elements, 30 nM selenium, 1 μg/ml putrescine, 0.1% BSA, 5 U/ml PenStrep, 10 μg/ml insulin) supplemented with the following growth factors: Platelet derived growth factor-AA (PDGF) and fibroblast growth factor-2 (FGF). • 4. Plate the cells on PDL-coated dishes and incubate at 37° C. with 6-7% CO2. • 5. Media components are replaced every 48 hr to keep the cells in a progenitor state. Progenitor Cell Passaging to Increase Cell Numbers for Screening Assays: • 1. […]
• 1. […] PPAR delta pathway member transcript expression is quantitated using Sybr Green PCR Master Mix. • 4. […]

Experiment [2] addresses T1, Human PPAR gamma (Homo sapiens, UniProt P37231).
T1 construct: expressed in transfected cells
T1 sequence (P37231 1-505): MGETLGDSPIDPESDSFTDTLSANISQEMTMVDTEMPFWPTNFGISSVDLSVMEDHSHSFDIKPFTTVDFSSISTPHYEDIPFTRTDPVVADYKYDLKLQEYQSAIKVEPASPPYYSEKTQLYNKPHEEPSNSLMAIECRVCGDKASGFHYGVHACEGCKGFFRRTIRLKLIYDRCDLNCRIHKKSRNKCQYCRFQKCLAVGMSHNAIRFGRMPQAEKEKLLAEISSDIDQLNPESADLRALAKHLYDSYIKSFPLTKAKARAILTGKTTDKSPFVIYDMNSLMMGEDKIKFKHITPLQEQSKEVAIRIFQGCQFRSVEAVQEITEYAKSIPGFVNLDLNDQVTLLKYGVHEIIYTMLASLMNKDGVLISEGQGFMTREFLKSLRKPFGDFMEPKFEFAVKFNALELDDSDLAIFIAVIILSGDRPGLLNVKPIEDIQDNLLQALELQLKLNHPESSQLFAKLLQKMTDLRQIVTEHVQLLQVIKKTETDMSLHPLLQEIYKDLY
Kind of experiment: Cellular PPAR gamma luciferase reporter assay. Here is the method:
Cell Based PPAR Gamma Assay Protocol
To perform cell based assays a luciferase assay is performed in 96 well plates as follows:
Dilution steps and addition of diluted compounds is done using a Beckman Biomek 2000 or Beckman FX robot.
• Aspirate medium from cells • Freeze plates at −20° C. (optional) • Thaw plates for 30 min (if necessary) • Add 50 μl Bright-Glo-Luciferase Assay Reagent (Promega, Cat. No. E2650) • Incubate for 10 min in the dark • Measure luminescence 2 sec per well (Wallac Microbeta) Data Analysis: […]

Experiment [3] concerns the target T2, Mouse PPAR delta (Mus musculus, UniProt P35396).
T2 construct: expressed in transfected cells
T2 sequence (P35396 1-440): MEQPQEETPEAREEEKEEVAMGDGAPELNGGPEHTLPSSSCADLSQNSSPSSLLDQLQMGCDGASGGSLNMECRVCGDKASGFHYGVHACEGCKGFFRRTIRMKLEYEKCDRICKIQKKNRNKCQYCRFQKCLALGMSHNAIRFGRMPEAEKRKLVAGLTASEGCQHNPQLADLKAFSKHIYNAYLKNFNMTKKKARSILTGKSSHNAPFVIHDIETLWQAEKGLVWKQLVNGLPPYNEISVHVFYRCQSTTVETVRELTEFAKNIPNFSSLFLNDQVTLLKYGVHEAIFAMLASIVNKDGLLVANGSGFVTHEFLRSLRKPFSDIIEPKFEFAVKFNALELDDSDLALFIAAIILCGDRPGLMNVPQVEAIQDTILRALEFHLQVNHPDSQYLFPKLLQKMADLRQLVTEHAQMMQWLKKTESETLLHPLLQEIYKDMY
Kind of experiment: Mouse PPAR delta GAL4/luciferase reporter assay. Here is the method:
The optimum nuclear receptor selectivity profile is determined by the GAL4/luciferase reporter assays.
In general terms: Reporter assays use an easily measured gene product as a stand-in for the process of interest.

Structures are written as SMILES.

In the case of `Cc1cc(SCc2sc(-c3ccc(C(F)(F)F)cc3)nc2C)ccc1OCC(=O)O` [Compound 1], in experiment [1], the “ADRP mRNA” value is given as “upregulated”.

For `CCCc1c(OCCCOc2ccc(OCC(=O)O)cc2)ccc(C(C)=O)c1O` [Compound 2], the EC50 in experiment [2] is 1100 nM; in experiment [3], 1000 nM.
